Data on four sequences can be found in patent US11795460B2, “Compositions and methods for TTR gene editing and treating ATTR amyloidosis” (Intellia Therapeutics, Inc., priority 2017, dated 2023).

For series [1], the system named is TTR. Briefly: TTR editing in HEK293_Cas9 cells transfected with dgRNAs (Table 4). The format is cell-based, human. To be noted: HEK293_Cas9 cells (constitutively express Spy Cas9) transfected with dgRNAs. How it is done:
HEK293 Cas9 cell line. The human embryonic kidney adenocarcinoma cell line HEK293 constitutively expressing Spy Cas9 (“HEK293_Cas9”) was cultured in DMEM media supplemented with 10% fetal bovine serum and 500 μg/ml G418. Cells were plated at a density of 10,000 cells/well in a 96-well plate 24 hours prior to transfection. Cells were transfected with Lipofectamine RNAiMAX (ThermoFisher, Cat. 13778150) per the manufacturer's protocol. Cells were transfected with a lipoplex containing individual crRNA (25 nM), trRNA (25 nM), Lipofectamine RNAiMAX (0.3 μL/well) and OptiMem.
(§1) Transfected cells were harvested post-transfection at 24, 48, or 72 hours. The genomic DNA was extracted from each well of a 96-well plate using 50 μL/well BuccalAmp DNA Extraction solution (Epicentre, Cat. QE09050) per manufacturer's protocol. All DNA samples were subjected to PCR and subsequent NGS analyses, as described herein.
(§2) To quantitatively determine the efficiency of editing at the target location in the genome, sequencing was utilized to identify the presence of insertions and deletions introduced by gene editing.
(§3) Primers were designed around the target site within the gene of interest (e.g. TTR), and the genomic area of interest was amplified.
(§4) Additional PCR was performed per the manufacturer's protocols (Illumina) to add chemistry for sequencing. The amplicons were sequenced on an Illumina MiSeq instrument. The reads were aligned to a reference genome (e.g., the human reference genome (hg38), the cynomologus reference genome (mf5), the rat reference genome (rn6), or the mouse reference genome (mm10)) after eliminating those having low quality scores. The resulting files containing the reads were mapped to the reference genome (BAM files), where reads that overlapped the target region of interest were selected and the number of wild type reads versus the number of reads which contain an insertion, substitution, or deletion was calculated.
(§5) The editing percentage (e.g., the “editing efficiency” or “percent editing” or “indel frequency”) is defined as the total number of sequence reads with insertions/deletions (“indels”) or substitutions over the total number of sequence reads, including wild type.
(§6) Guides in dgRNA format targeting human TTR and the cynomologus matched sequences were delivered to HEK293 Cas9, HUH7 and HepG2 cell lines, as well as primary human hepatocytes and primary cynomolgus monkey hepatocytes as described in Example 1. Percent editing was determined for crRNAs comprising each guide sequence across each cell type and the guide sequences were then rank ordered based on highest % edit. The screening data for the guide sequences in Table 1 in all five cell lines are listed below (Table 4 through 11).

The test system of series [2] is TTR. Put plainly: TTR editing in primary human hepatocytes transfected with Spy Cas9 protein (RNP) loaded with dgRNAs (Table 8). The class given is cell-based. To be noted: dgRNA transfected with Spy Cas9 protein (RNP). The method, then: (§7) Primary liver hepatocytes. Primary human liver hepatocytes (PHH) and primary cynomolgus liver hepatocytes (PCH) (Gibco) were cultured per the manufacturer's protocol (Invitrogen, protocol 11.28.2012). In brief, the cells were thawed and resuspended in hepatocyte thawing medium with supplements (Gibco, Cat. CM7000) followed by centrifugation at 100 g for 10 minutes for human and 80 g for 4 minutes for cyno. The supernatant was discarded and the pelleted cells resuspended in hepatocyte plating medium plus supplement pack (Invitrogen, Cat. A1217601 and CM3000). Cells were counted and plated on Bio-coat collagen I coated 96-well plates (ThermoFisher, Cat. 877272) at a density of 33,000 cells/well for human or 60,000 cells/well for cyno (or 65,000 cells/well when assaying effects on TTR protein, described further below). Plated cells were allowed to settle and adhere for 6 or 24 hours in a tissue culture incubator at 37° C. and 5% CO2 atmosphere. After incubation cells were checked for monolayer formation and media was replaced with hepatocyte culture medium with serum-free supplement pack (Invitrogen, Cat. A1217601 and CM4000).
(§8) […] formation was performed prior to electroporation or transfection of Spy Cas9 protein loaded with guide RNAs (RNPs) onto cells. For dual guide (dgRNAs), individual crRNA and trRNA was pre-annealed by mixing equivalent amounts of reagent and incubating at 95° C. for 2 min and cooling to room temperature. Single guide (sgRNAs) were boiled at 95° C. for 2 min and cooling to room temperature. The boiled dgRNA or sgRNA was incubated with Spy Cas9 protein in Optimem for 10 minutes at room temperature to form a ribonucleoprotein (RNP) complex.
For RNP lipoplex transfections, cells were transfected with Lipofectamine RNAiMAX (ThermoFisher, Cat. 13778150) per the manufacturer's protocol. Cells were transfected with an RNP containing Spy Cas9 (10 nM), individual guide (10 nM), tracer RNA (10 nM), Lipofectamine RNAiMAX (1.0 μL/well) and OptiMem. RNP formation was performed as described above.
as §1, §2, §3, §4, §5
Guides in dgRNA format targeting human TTR and the cynomologus matched sequences were delivered to HEK293 Cas9, HUH7 and HepG2 cell lines, as well as primary human hepatocytes and primary cynomolgus monkey hepatocytes as described in Example 1. […]

Series [3] relates to TTR. Briefly: TTR editing in HUH7 cells transfected with Spy Cas9 mRNA and dgRNAs (Table 5). The format is cell-based, human. To be noted: HUH7 cells co-transfected with Spy Cas9 mRNA (SEQ ID NO:2) and dgRNAs. The method, then: HUH7 cell line. The human hepatocellular carcinoma cell line HUH7 (Japanese Collection of Research Bioresources Cell Bank, Cat. JCRB0403) was cultured in DMEM media supplemented with 10% fetal bovine serum. Cells were plated on at a density of 15,000 cells/well in a 96-well plate 20 hours prior to transfection. Cells were transfected with Lipofectamine MessengerMAX (ThermoFisher, Cat. LMRNA003) per the manufacturer's protocol. Cells were sequentially transfected with a lipoplex containing Spy Cas9 mRNA (100 ng), MessengerMAX (0.3 μL/well) and OptiMem followed by a separate lipoplex containing individual crRNA (25 nM), tracer RNA (25 nM), MessengerMAX (0.3 μL/well) and OptiMem.
as §1, §2, §3, §4, §5, §6

Series [4] has as its system TTR. Briefly: TTR editing in primary human hepatocytes transfected with Spy Cas9 mRNA and dgRNAs (Table 9). The class given is cell-based. To be noted: dgRNA co-transfected with Spy Cas9 mRNA (SEQ ID NO:2). The method, then: as §7
Lipofectamine RNAiMax (ThermoFisher, Cat. 13778150) based transfections were conducted as per the manufacturer's protocol. Cells were sequentially transfected with a lipoplex containing Spy Cas9 mRNA (100 ng), Lipofectamine RNAiMax (0.4 μL/well) and OptiMem followed by a separate lipoplex containing crRNA (25 nM) and tracer RNA (25 nM) or sgRNA (25 nM), Lipofectamine RNAiMax (0.4 μL/well) and OptiMem.
as §1, §2, §3, §4, §5, §6

For series [5], the system named is TTR. Put plainly: TTR editing in HepG2 cells transfected with Spy Cas9 mRNA and dgRNAs (Table 6). The format is cell-based, human. To be noted: HepG2 cells co-transfected with Spy Cas9 mRNA (SEQ ID NO:2) and dgRNAs. The method, then:
HepG2 cell line. The human hepatocellular carcinoma cell line HepG2 (American Type Culture Collection, Cat. HB-8065) was cultured in DMEM media supplemented with 10% fetal bovine serum. Cells were counted and plated on Bio-coat collagen I coated 96-well plates (ThermoFisher, Cat. 877272) at a density of 10,000 cells/well in a 96-well plate 24 hours prior to transfection. Cells were transfected with Lipofectamine 2000 (ThermoFisher, Cat. 11668019) per the manufacturer's protocol. Cells were sequentially transfected with lipoplex containing Spy Cas9 mRNA (100 ng), Lipofectamine 2000 (0.2 μL/well) and OptiMem followed by a separate lipoplex containing individual crRNA (25 nM), tracer RNA (25 nM), Lipofectamine 2000 (0.2 μL/well) and OptiMem.
as §1, §2, §3, §4, §5, §6

For series [6], the system named is TTR. Put plainly: TTR editing in primary human hepatocytes electroporated with Spy Cas9 protein loaded with dgRNAs (Table 7). The class given is cell-based. To be noted: dgRNA electroporated with Spy Cas9 protein (RNP). The method, then:
as §7, §8
For RNP electroporation into primary human and cyno hepatocytes, the cells are thawed and resuspended in Lonza electroporation Primary Cell P3 buffer at a concentration of 2500 cells per μL for human hepatocytes and 3500 cells per μL for cyno hepatocytes. A volume of 20 μL of resuspended cells and 5 μL of RNP are mixed together per guide. 20 μL of the mixture is placed into a Lonza electroporation plate. The cells were electroporated using the Lonza nucleofector with the preset protocol EX-147. Post electroporation, the cells are transferred into a Biocoat plate containing pre-warmed maintenance media and placed in a tissue culture incubator at 37° C. and 5% CO2.
as §1, §2, §3, §4
The editing percentage (e.g., the “editing efficiency” or “percent editing” or “indel frequency”) is defined as the total number of sequence reads with insertions/deletions (“indels”) or substitutions over the total number of sequence reads, including wild type. […]

With “GCGGCGGGGGCCGGAGUCGU (tested as dual guide RNA, chemistry not given here) [CR003374]”, the “Avg % Deletion” value is listed as 10.10% with TTR [1]; 0.14% with TTR [2]; 2.87% with TTR [3]; 0.03% in the series with TTR [4]; 0.31% with TTR [5]; 0.10% in the series on TTR [6]. In addition, the “Avg % Edit” value with TTR [1] amounted to 10.91%; with TTR [2] it was 2.65%; with TTR [3], 3.10%; with TTR [4], 0.27%; with TTR [5] it was 5.43%; with TTR [6], 0.80%. In addition, the “Avg % Insert” value in the series on TTR [1] was 0.81%; in the series on TTR [2], 2.52%; with TTR [3], 0.45%; with TTR [4] it was 0.27%; in the series with TTR [5], 5.12%; in the series with TTR [6] it was 0.70%.
Regarding “GGCGGCAAUGGUGUAGCGGC (tested as dual guide RNA, chemistry not given here) [CR003378]”, the “Avg % Deletion” value amounted to 16.48% with TTR [1]; 0.42% with TTR [2]; 32.27% in the series on TTR [3]; 1.37% in the series with TTR [4]; 1.34% with TTR [5]; 0.73% with TTR [6]. Also, the “Avg % Edit” value stood at 20.97% in the series on TTR [1]; 8.66% with TTR [2]; 40.73% with TTR [3]; 9.80% in the series with TTR [4]; 8.16% with TTR [5]; 4.60% in the series on TTR [6]. The “Avg % Insert” value with TTR [1] turned out to be 4.49%; in the series with TTR [2] it was 8.24%; in the series on TTR [3], 9.73%; with TTR [4] it was 8.50%; in the series with TTR [5], 6.82%; in the series with TTR [6], 3.87%.
On to “GGGCGGCAAUGGUGUAGCGG (tested as dual guide RNA, chemistry not given here) [CR003379]”, for which the “Avg % Deletion” value is reported as 20.98% in the series with TTR [1]; 0.34% with TTR [2]; 16.48% in the series on TTR [3]; 1.27% in the series on TTR [4]; 2.04% in the series with TTR [5]; 0.27% in the series with TTR [6]. For the same sequence, the “Avg % Edit” value is on record as 26.32% in the series on TTR [1]; 16.86% in the series on TTR [2]; 19.18% with TTR [3]; 13.20% in the series on TTR [4]; 19.74% with TTR [5]; 6.57% in the series with TTR [6]. Moreover, the “Avg % Insert” value in the series with TTR [1] is recorded as 5.34%; in the series on TTR [2], 16.51%; in the series on TTR [3], 3.38%; with TTR [4], 12.00%; in the series on TTR [5], 17.70%; in the series on TTR [6] it was 6.30%.
“GGGGCUCAGCAGGGCGGCAA (tested as dual guide RNA, chemistry not given here) [CR003381]”: the “Avg % Deletion” value in the series on TTR [1] came out at 18.23%; in the series with TTR [2], 0.27%; in the series on TTR [3], 99.70%; in the series with TTR [4], 0.73%; with TTR [5], 0.63%; with TTR [6] it was 0.50%. The “Avg % Edit” value came out at 22.04% with TTR [1]; 7.15% in the series with TTR [2]; 99.70% with TTR [3]; 4.07% in the series on TTR [4]; 6.81% with TTR [5]; 6.20% in the series on TTR [6]. The “Avg % Insert” value in the series on TTR [1] turned out to be 3.82%; in the series on TTR [2] it was 6.88%; in the series on TTR [3], 1.92%; in the series on TTR [4], 3.33%; with TTR [5], 6.18%; in the series on TTR [6] it was 5.83%.
